In paper PMC3038857, “Using Nuclear Receptor Activity to Stratify Hepatocarcinogens” (PLoS ONE, 2011):
Where two headings read alike, the source gives them in different places.

Key:
liver = details: cited from earlier work
AhR = assay: Aggregate nuclear receptor activity: AhR; details: aggregate human NR activity, in words
Source text: (§1) To summarize the activity of chemicals across the NR superfamily we aggregated the ToxCast assays for genes and NR groups as follows: retinoic X receptor-like (RXR; [drawing 5]; NR2B); peroxisome proliferator-activated receptor-like (PPAR; [drawing 6]; NR1C); constitutive androstane receptor ( [drawing 7]; [drawing 8]; [drawing 9] ); pregnane X receptor ( [drawing 10]; [drawing 11] ); liver X receptor-like (LXR; [drawing 12] , FXR; NR1H); and steroid receptor-like (SR; [drawing 13] , [drawing 14] , [drawing 15] ). These are shown visually in Figure 1(a). As there were differences in the number and types of assays for each group, aggregate activity was calculated as the average potency across the assays measured by the AC50 or LEC (described in Methods). This approach aggregated NR binding, activation, agonism or antagonism results into a single assessment of activity.
(§2) All data used in this analysis are publicly available from the ToxCast website (www.epa.gov/toxcast). The analysis was conducted using the R statistical language (www.r-project.org). For each chemical [drawing 77] , and assay [drawing 78] combination we derived either the AC50 (50% maximal activity concentration) or LEC (Lowest Effective Concentration) in [drawing 79] M denoted as, [drawing 80] . All chemicals are provided in Dataset S3 and all assays are given in Dataset S1. The procedure for evaluating the quality of [drawing 81] are described in the supplementary methods (Text S1) and all assay results are provided in Dataset S2. In order to facilitate comparison across the assays the [drawing 82] were transformed by the formula, [drawing 83] where [drawing 84] represents a the potency on an ascending scale, and [drawing 85] is the maximum concentration (lowest potency) across the data set.
(§3) The aggregate NR activity [drawing 86] , where [drawing 87] , was calculated using assays [drawing 88] . The aggregate scaled NR activity score for each chemical [drawing 89] was calculated as the average concentration value across the assays, scaled by the maximum value across all chemicals using Equation 1. [drawing 90] (1)

CAR = assay: Aggregate nuclear receptor activity: CAR; details: aggregate human NR activity, in words
Source text: as §1, §2, §3

PXR = assay: Aggregate nuclear receptor activity: PXR; parameters: species or system human; details: aggregate human NR activity, in words
Source text: as §1, §2, §3

[1] = target: T1, ESR1 (estrogen receptor 1) (Homo sapiens, UniProt P03372); assay: ATG_ERa_TRANS: Factorial reporter gene assay (HepG2); format: cell-based; details: HepG2 reporter
T1 construct: expressed in transfected cells; host or cells: HepG2
How it was run: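 HepG2 cells transfected with multiplexed reporter libraries: cis-acting binding-site reporters (CIS) and a one-hybrid nuclear-receptor trans system (TRANS). Chemicals tested at seven concentrations, starting at the maximum tolerated concentration with three-fold serial dilutions.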

[2] = target: T1, ESR1 (estrogen receptor 1); assay: ATG_ERE_CIS: Factorial reporter gene assay (HepG2); format: cell-based; details: HepG2 reporter
Protocol: (§4) A multiple reporter transcription unit (MRTU) library consisting of 48 transcription factor binding sites was transfected into the HepG2 human liver hepatoma cell line. In addition to the cis-acting reporter genes (CIS), a modification of the approach was used to generate a trans-system (TRANS) with a mammalian one-hybrid assay consisting of an additional 25 MRTU library reporting the activity of nuclear receptor super-family members. […] These assays were performed by Attagene Inc. (Morrisville NC) under contract to EPA.
(§5) In addition to the cis-acting reporter genes (CIS), a modification of the approach was used to generate a trans-system (TRANS) with a mammalian one-hybrid assay consisting of an additional 25 MRTU library reporting the activity of nuclear receptor super-family members. […] Chemicals were then tested in the CIS and TRANS assays at seven concentrations starting at the MTC and followed by three-fold serial dilutions. These assays were performed by Attagene Inc. (Morrisville NC) under contract to EPA. Detailed description of the methods, data and analysis methods for this dataset will be presented in a separate publication.

[3] = target: T2, PPARG (peroxisome proliferator-activated receptor gamma) (Homo sapiens, UniProt P37231); assay: ATG_PPARg_TRANS: Factorial reporter gene assay (HepG2); format: cell-based; details: HepG2 reporter
T2 construct: expressed in transfected cells; host or cells: HepG2
T2 sequence (P37231 1-505): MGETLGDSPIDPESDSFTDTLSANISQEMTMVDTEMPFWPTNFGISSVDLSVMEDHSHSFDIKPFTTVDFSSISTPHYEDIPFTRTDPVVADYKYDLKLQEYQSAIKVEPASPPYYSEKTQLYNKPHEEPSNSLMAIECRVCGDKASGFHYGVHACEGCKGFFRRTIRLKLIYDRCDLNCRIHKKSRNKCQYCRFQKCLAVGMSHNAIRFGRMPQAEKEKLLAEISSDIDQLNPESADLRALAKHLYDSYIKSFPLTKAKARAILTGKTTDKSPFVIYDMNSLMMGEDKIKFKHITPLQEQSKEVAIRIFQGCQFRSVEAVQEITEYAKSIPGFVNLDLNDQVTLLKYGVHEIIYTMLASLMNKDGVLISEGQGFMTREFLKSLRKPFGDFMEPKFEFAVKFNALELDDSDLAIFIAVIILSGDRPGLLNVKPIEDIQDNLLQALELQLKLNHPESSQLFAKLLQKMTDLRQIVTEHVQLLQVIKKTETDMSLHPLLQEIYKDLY
How it was run: (§6)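 Mammalian one-hybrid trans reporters (25 MRTUs) measured ERRg, FXR and PPARg; PXRE used cis reporters from a 48-site MRTU library. Both were run in HepG2. Dosing: seven concentrations, MTC as the highest, three-fold dilution series.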

[4] = target: T3, RXRB (retinoid X receptor, beta) (Homo sapiens, UniProt P28702); assay: ATG_RXRb_TRANS: Factorial reporter gene assay (HepG2); format: cell-based; details: HepG2 reporter
T3 construct: expressed in transfected cells; host or cells: HepG2
T3 sequence (P28702 1-533): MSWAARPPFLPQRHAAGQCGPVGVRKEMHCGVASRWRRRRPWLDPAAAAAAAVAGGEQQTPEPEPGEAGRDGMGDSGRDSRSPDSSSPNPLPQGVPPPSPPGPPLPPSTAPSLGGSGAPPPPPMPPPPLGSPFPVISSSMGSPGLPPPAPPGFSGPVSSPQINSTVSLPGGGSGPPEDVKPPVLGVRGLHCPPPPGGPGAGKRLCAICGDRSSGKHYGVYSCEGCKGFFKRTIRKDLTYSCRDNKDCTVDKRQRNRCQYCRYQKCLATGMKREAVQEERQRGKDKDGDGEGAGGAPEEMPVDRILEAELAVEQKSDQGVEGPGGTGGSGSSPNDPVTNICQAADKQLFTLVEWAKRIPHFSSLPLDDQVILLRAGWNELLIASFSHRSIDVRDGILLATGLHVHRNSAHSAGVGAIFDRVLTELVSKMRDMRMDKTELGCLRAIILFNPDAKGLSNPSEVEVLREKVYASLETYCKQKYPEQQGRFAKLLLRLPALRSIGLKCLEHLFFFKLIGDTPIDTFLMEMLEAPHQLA
Protocol: as §4, §5

PXR (NR1I2) [5] = target: T4, PXR (NR1I2) (Homo sapiens, UniProt O75469); assay: NVS_NR_hPXR: Human PXR Fluormone PXR (SXR) green (cell-free HTS); format: binding
T4 sequence (O75469 1-434): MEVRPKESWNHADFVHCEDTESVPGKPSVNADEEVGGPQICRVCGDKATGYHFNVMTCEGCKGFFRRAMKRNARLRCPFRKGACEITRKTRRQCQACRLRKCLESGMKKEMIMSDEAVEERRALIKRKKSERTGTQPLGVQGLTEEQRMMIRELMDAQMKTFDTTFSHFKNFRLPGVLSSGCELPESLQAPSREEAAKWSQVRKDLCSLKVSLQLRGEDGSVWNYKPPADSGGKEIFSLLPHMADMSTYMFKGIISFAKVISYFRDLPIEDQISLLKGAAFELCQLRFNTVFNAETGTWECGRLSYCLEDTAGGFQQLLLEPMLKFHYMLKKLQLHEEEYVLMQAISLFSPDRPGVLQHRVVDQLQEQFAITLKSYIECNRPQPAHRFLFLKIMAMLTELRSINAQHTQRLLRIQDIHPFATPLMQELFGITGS
How it was run: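 Responses were normalized to same-plate solvent controls as percent of neutral control. AC50 values came from Hill-equation fits of concentration-response curves.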

Rat Liver [6] = details: chronic study, rat liver; ref ToxRefDB; cited from earlier work
Rat Liver [7] = details: chronic study, rat liver; ref ToxRefDB; cited from earlier work; remark: listed apart in the source
Rat Liver [8] = details: chronic study, rat liver; ref ToxRefDB; cited from earlier work; remark: listed apart in the source
CAR (NR1I3) = target: T5, CAR (NR1I3) (Homo sapiens, UniProt Q14994); assay: ATG_CAR_TRANS: Factorial reporter gene assay (HepG2); format: cell-based; parameters: endogenous in cells; host or cells: HepG2; details: HepG2 reporter
T5 sequence (Q14994 1-352): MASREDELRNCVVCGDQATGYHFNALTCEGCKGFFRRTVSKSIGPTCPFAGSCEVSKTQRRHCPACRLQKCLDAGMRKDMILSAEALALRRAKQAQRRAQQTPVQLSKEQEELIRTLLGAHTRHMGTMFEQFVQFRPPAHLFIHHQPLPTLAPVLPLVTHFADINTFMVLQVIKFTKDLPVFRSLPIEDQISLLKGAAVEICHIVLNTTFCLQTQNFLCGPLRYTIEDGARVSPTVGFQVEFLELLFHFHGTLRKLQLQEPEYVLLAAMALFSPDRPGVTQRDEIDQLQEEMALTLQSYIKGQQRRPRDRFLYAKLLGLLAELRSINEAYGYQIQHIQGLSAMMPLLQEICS
Protocol: as §4, §5

PXR (NR1I2) [9] = target: T4, PXR (NR1I2); assay: ATG_PXRE_CIS: Factorial reporter gene assay (HepG2); format: cell-based; parameters: endogenous in cells; host or cells: HepG2; details: HepG2 reporter
How it was run: as §6

PPAR = assay: Aggregate nuclear receptor activity: PPAR; details: aggregate human NR activity, in words
Source text: as §1, §2, §3

[10] = tested on: SR (steroid receptor-like); assay: Aggregate nuclear receptor activity: SR; details: aggregate human NR activity, in words
Source text: as §1, §2, §3

[11] = 2-year chronic feeding studies in both rat and mouse, ToxRefDB ref 5

T1 sequence (P03372 whole entry): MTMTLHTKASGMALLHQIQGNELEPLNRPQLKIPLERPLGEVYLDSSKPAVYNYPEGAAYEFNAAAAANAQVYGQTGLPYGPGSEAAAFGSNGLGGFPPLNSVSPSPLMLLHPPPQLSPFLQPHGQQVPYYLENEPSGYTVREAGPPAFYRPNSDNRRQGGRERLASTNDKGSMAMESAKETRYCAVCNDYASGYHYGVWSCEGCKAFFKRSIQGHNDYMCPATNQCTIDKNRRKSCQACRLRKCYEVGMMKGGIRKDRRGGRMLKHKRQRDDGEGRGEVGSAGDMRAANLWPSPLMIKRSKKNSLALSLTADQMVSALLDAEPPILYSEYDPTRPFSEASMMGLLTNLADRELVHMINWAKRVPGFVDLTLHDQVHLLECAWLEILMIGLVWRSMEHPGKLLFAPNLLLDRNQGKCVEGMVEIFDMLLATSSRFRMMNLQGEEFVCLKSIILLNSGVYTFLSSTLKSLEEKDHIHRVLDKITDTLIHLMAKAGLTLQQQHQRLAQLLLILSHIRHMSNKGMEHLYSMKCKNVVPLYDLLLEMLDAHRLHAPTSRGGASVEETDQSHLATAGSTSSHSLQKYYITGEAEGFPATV

## CC1(C(=O)Nc2ccc(O)c(Cl)c2Cl)CCCCC1 [Fenhexamid, N-(2,3-dichloro-4-hydroxyphenyl)-1-methylcyclohexanecarboxamide]
liver; in vivo
  liver injury (liver histopathology): negative for any liver injury

## CCNP(=S)(OC)O/C(C)=C/C(=O)OC(C)C (stereo not shown) [Propetamphos, isopropyl (2E)-3-{[(ethylamino)(methoxy)phosphorothioyl]oxy}but-2-enoate]
liver; [11]
  liver injury (liver histopathology): negative for any liver injury

## CC1(C)C(C=C(Cl)Cl)C1C(=O)OCc1cccc(Oc2ccccc2)c1 (stereo not shown) [Permethrin, [3-(phenyloxy)phenyl]methyl 3-(2,2-dichloroethenyl)-2,2-dimethylcyclopropanecarboxylate]
AhR
  activity with AhR: active
CAR
  activity with CAR: most consistently active
PXR
  activity with PXR: active

## C#CC(C)(C)NC(=O)c1cc(Cl)cc(Cl)c1 [Propyzamide, 3,5-dichloro-N-(1,1-dimethylprop-2-yn-1-yl)benzamide]
AhR
  activity with AhR: active
CAR
  activity with CAR: most consistently active
PXR
  activity with PXR: active

## O=[N+]([O-])c1c(Cl)c(Cl)c(Cl)c(Cl)c1Cl [r278]
[1]
  ATG_ERa_TRANS: 4.284
[2]
  ATG_ERE_CIS: 4.854
[3]
  ATG_PPARg_TRANS: 4.409
[4]
  ATG_RXRb_TRANS: 4.387
PXR (NR1I2) [5]
  NVS_NR_hPXR: 4.314
Rat Liver [6]
  CHR_Rat_Liver_1_AnyLesion: 6
Rat Liver [7]
  CHR_Rat_Liver_2_PreneoplasticLesion: 6
Rat Liver [8]
  CHR_Rat_Liver_3_NeoplasticLesion: 0
CAR (NR1I3)
  ATG_CAR_TRANS: 4.377
PXR (NR1I2) [9]
  ATG_PXRE_CIS: 4.959

## CCOP(=S)(Oc1cnc(C(C)(C)C)nc1)OC(C)C (stereo not shown) [Tebupirimfos, O-(2-tert-butylpyrimidin-5-yl) O-ethyl O-isopropyl thiophosphate]
liver; [11]
  liver injury (liver histopathology): negative for any liver injury

## C=C(C)CN(CC)c1c([N+](=O)[O-])cc(C(F)(F)F)cc1[N+](=O)[O-] [Ethalfluralin, N-ethyl-N-(2-methylprop-2-en-1-yl)-2,6-dinitro-4-(trifluoromethyl)aniline]
liver; [11]
  liver injury (liver histopathology): negative for any liver injury

## CCCN(CCOc1c(Cl)cc(Cl)cc1Cl)C(=O)n1ccnc1 [Prochloraz, N-propyl-N-[2-(2,4,6-trichlorophenoxy)ethyl]-1H-imidazole-1-carboxamide]
CAR
  activity with CAR: most consistently active
PXR
  activity with PXR: active

## Cc1ccc(-c2c(Cl)nc(C#N)n2S(=O)(=O)N(C)C)cc1 [Cyazofamid, 4-chloro-2-cyano-N,N-dimethyl-5-(4-methylphenyl)-1H-imidazole-1-sulfonamide]
liver; in vivo
  liver injury (liver histopathology): negative for any liver injury

## C=CCOC(Cn1ccnc1)c1ccc(Cl)cc1Cl (stereo not shown) [Imazalil, 1-[2-(allyloxy)-2-(2,4-dichlorophenyl)ethyl]-1H-imidazole]
AhR
  activity with AhR: some activity
CAR
  activity with CAR: some activity
PXR
  activity with PXR: some activity
PPAR
  activity with PPAR: most consistently active
[10]
  activity with SR: some activity

## CCOP(=S)(OCC)Oc1nc(Cl)n(C(C)C)n1 [Isazofos, O-(5-chloro-1-isopropyl-1H-1,2,4-triazol-3-yl) O,O-diethyl thiophosphate]
liver; [11]
  liver injury (liver histopathology): negative for any liver injury

## Cc1nn(C)c(Oc2ccccc2)c1/C=N/OCc1ccc(C(=O)OC(C)(C)C)cc1 [(Z,E)-Fenpyroximate, tert-butyl 4-[({[(1E)-(1,3-dimethyl-5-phenoxy-1H-pyrazol-4-yl)methylene]amino}oxy)methyl]benzoate]
liver; [11]
  liver injury (liver histopathology): negative for any liver injury

## COP(=S)(OC)Oc1ccc(SC)c(C)c1 [Fenthion, O,O-dimethyl O-[3-methyl-4-(methylthio)phenyl] thiophosphate]
liver; [11]
  liver injury (liver histopathology): negative for any liver injury
